“Also recorded” adds a separate entry of the source. One block for each compound: values may come before it.
Experiments:
GalR2 = target: T1, GalR2 (Homo sapiens, UniProt O43603); type: cell-based; conditions: for efficacy via GalR2 compared with GalWtb, in words: GalR2, Table 1 data
T1 construct: expressed in transfected cells; host or cells: HEK293
T1 sequence (O43603 1-387): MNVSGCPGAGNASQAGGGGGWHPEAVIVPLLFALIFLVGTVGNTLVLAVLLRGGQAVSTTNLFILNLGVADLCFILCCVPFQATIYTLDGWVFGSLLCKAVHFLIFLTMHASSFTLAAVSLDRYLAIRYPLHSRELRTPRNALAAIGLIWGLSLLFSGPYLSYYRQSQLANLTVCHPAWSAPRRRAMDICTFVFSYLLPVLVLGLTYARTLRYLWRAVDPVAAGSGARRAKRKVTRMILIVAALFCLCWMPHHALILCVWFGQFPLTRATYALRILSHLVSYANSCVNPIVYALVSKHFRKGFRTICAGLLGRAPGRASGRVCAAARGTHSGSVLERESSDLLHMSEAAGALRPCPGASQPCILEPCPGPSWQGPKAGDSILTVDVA
Method: (§1) ND indicates ‘not determined’.
Peptide was dissolved in 0.3% ammonia. […] Different isomers were purified and lyophilized.

[1] = tested on: Galanin receptor (GalR1, GalR2); assay: Galanin receptor activation assays, overall statements in words; type: cell-based; conditions: for preference for stimulating GalR2 (over GalR1), in words: GalR2 versus GalR1; for activity, in words: overall statement on galanin receptor activation
Method: (§2) The biological activity of the (lanthi)galanins was determined in CHO-K1 cell lines that express either the GalR1, or GalR2 receptor. Activity measurements were performed using commercial kits from DiscoverX for determining arrestin recruitment (GalR1, GalR2) and inhibition of cAMP synthesis (GalR1). In addition, HEK293 cell lines that express the GalR2 receptor have been used for methods from Molecular Probes to measure calcium efflux (GalR2).
(§3) Peptide was dissolved in 0.3% ammonia. Peptides were incubated o/n at 37° C. for the introduction of the lanthionine via base assisted sulfur extrusion of the disulfide bridged peptide. Different isomers could be isolated by HPLC applying the same method as was used as for the biologically produced peptides. Different isomers were purified and lyophilized. Dry peptides were dissolved in 100 mM phosphate buffer pH=7.6 and peptides were incubated o/n at 50° C. After HPLC purification peptides with a pE formation were selected and used in the different Galanin receptor activation assays.

GalR1 [2] = target: T2, GalR1 (Homo sapiens, UniProt P47211); assay: inhibition of cAMP synthesis in CHO-K1 cells expressing GalR1 (DiscoverX kit); type: cell-based; set-up: host or cells: CHO-K1; conditions: FIG. 3
T2 sequence (P47211 1-349): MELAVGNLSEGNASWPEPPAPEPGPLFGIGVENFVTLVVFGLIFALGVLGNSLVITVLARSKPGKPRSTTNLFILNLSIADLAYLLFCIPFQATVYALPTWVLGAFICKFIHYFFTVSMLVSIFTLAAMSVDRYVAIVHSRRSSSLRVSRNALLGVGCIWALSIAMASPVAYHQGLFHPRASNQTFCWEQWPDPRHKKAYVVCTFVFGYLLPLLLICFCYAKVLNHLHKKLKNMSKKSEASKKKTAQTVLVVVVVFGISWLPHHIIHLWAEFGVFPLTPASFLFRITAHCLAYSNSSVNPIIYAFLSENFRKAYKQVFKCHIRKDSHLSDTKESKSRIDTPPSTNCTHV
Method: as §2, §1
as §3, with “Different isomers could be isolated by HPLC applying the same method as was used as for the biologically produced peptides.” left out

GalR1 [3] = target: T2, GalR1; conditions: FIG. 1
Method: as §2, §1
as §3, with “Different isomers could be isolated by HPLC applying the same method as was used as for the biologically produced peptides.” left out

- Ratio EC50s relative to Gal-(1-15), GalR2 Ca efflux (GalR2): 248
SMILES: CC(C)C[C@@H]1NC(=O)[C@H](CC(C)C)NC(=O)[C@H](Cc2ccc(O)cc2)NC(=O)C(NC(=O)[C@H](C)NC(=O)[C@H](C)NC(=O)[C@H](CC(N)=O)NC(=O)[C@H](CC(C)C)NC(=O)[C@@H](NC(=O)[C@H](Cc2c[nH]c3ccccc23)NC(=O)[C@@H]2CCC(=O)N2)[C@@H](C)O)CSCC(C(=O)O)NC1=O (single isomer, unassigned) [4179 C, pEWTLNAAlanYLLlan]

- preference for stimulating GalR2 (over GalR1), in words [1]: preference for stimulating GalR2
SMILES: CC(C)C[C@H](NC(=O)[C@H](CC(C)C)NC(=O)[C@H](Cc1ccc(O)cc1)NC(=O)CNC(=O)[C@H](C)NC(=O)[C@H](C)NC(=O)[C@H](CC(N)=O)NC(=O)[C@H](CC(C)C)NC(=O)[C@H](CC(N)=O)NC(=O)[C@H](Cc1c[nH]c2ccccc12)NC(=O)[C@@H]1CCC(=O)N1)C(=O)N[C@@H](C)C(=O)N[C@H]1C(=O)N[C@@H](Cc2c[nH]cn2)C(=O)N[C@@H](C)C(=O)N[C@H](C(=O)NCC(=O)N[C@@H](CC(N)=O)C(=O)N[C@@H](Cc2c[nH]cn2)C(=O)N[C@@H](CCCNC(=N)N)C(=O)O)CS[C@H]1C [GalM50b]

- cAMP production via GalR1, in words (GalR1 [2]): inhibit cAMP production via GalR1
- β-arrestin recruitment via GalR1, in words (GalR1 [3]): induced β-arrestin recruitment via GalR1
SMILES: CC(C)C[C@H](NC(=O)[C@H](CC(C)C)NC(=O)[C@H](Cc1ccc(O)cc1)NC(=O)CNC(=O)[C@H](C)NC(=O)[C@H](C)NC(=O)[C@H](CC(N)=O)NC(=O)[C@H](CC(C)C)NC(=O)[C@H](CC(N)=O)NC(=O)[C@H](Cc1c[nH]c2ccccc12)NC(=O)CN)C(=O)NCC(=O)N[C@@H](C)C(=O)N[C@H]1C(=O)N[C@@H](C)C(=O)N[C@@H](C(C)C)C(=O)N[C@H](C(=O)N[C@@H](CC(N)=O)C(=O)N[C@@H](Cc2c[nH]cn2)C(=O)N[C@@H](CCCNC(=N)N)C(=O)O)CS[C@H]1C [GalM51]

- cAMP production via GalR1, in words (GalR1 [2]): inhibit cAMP production via GalR1
SMILES: CC(C)C[C@H](NC(=O)[C@H](CC(C)C)NC(=O)[C@H](Cc1ccc(O)cc1)NC(=O)CNC(=O)[C@H](C)NC(=O)[C@H](C)NC(=O)[C@H](CC(N)=O)NC(=O)[C@H](CC(C)C)NC(=O)[C@H](CC(N)=O)NC(=O)[C@H](Cc1c[nH]c2ccccc12)NC(=O)CN)C(=O)NCC(=O)N1CCC[C@H]1C(=O)N[C@@H](Cc1c[nH]cn1)C(=O)N[C@H]1C(=O)N[C@@H](C(C)C)C(=O)NCC(=O)N[C@H](C(=O)N[C@@H](Cc2c[nH]cn2)C(=O)N[C@@H](CCCNC(=N)N)C(=O)O)CS[C@H]1C [GalM52]

SMILES: CC(C)C[C@H](NC(=O)[C@H](CC(C)C)NC(=O)[C@H](Cc1ccc(O)cc1)NC(=O)CNC(=O)[C@H](C)NC(=O)[C@H](C)NC(=O)[C@H](CC(N)=O)NC(=O)[C@H](CC(C)C)NC(=O)[C@H](CC(N)=O)NC(=O)[C@H](Cc1c[nH]c2ccccc12)NC(=O)[C@@H]1CCC(=O)N1)C(=O)NCC(=O)N[C@@H](C)C(=O)N[C@H]1C(=O)N[C@@H](C)C(=O)N[C@@H](C(C)C)C(=O)N[C@H](C(=O)N[C@@H](CC(N)=O)C(=O)N[C@@H](Cc2c[nH]cn2)C(=O)N[C@@H](CCCNC(=N)N)C(=O)O)CS[C@H]1C [GalM54]
- preference for stimulating GalR2 (over GalR1), in words [1]: GalR2-specific; also recorded: preference for stimulating GalR2
- β-arrestin recruitment via GalR2, preference in words (GalR2; FIG. 2): preferentially stimulates β-arrestin recruitment via GalR2

- preference for stimulating GalR2 (over GalR1), in words [1]: GalR2-specific
SMILES: CC(C)C[C@H](NC(=O)[C@H](CC(C)C)NC(=O)[C@H](Cc1ccc(O)cc1)NC(=O)CNC(=O)[C@H](C)NC(=O)[C@H](C)NC(=O)[C@H](CC(N)=O)NC(=O)[C@H](CC(C)C)NC(=O)[C@H](CC(N)=O)NC(=O)[C@H](Cc1c[nH]c2ccccc12)NC(=O)[C@@H]1CCC(=O)N1)C(=O)NCC(=O)N[C@@H](C)C(=O)N[C@H]1C(=O)N[C@@H](C)C(=O)N[C@@H](C(C)C)C(=O)N[C@H](C(=O)N[C@@H](CC(N)=O)C(=O)N[C@@H](Cc2c[nH]cn2)C(=O)O)CS[C@H]1C [GalM54tr]

- activity, in words [1]: retained some activity
SMILES: CC(C)C[C@@H]1NC(=O)[C@H](Cc2ccc(O)cc2)NC(=O)C(NC(=O)[C@H](C)NC(=O)[C@H](C)NC(=O)[C@H](CC(N)=O)NC(=O)[C@H](CC(C)C)NC(=O)[C@H](CC(N)=O)NC(=O)[C@H](Cc2c[nH]c3ccccc23)NC(=O)CN)CSC[C@@H](C(=O)NCC(=O)N2CCC[C@H]2C(=O)N[C@@H](Cc2c[nH]cn2)C(=O)N[C@@H](C)C(=O)N[C@H](C(=O)NCC(=O)N[C@@H](CC(N)=O)C(=O)N[C@@H](Cc2c[nH]cn2)C(=O)N[C@@H](CCCNC(=N)N)C(=O)O)C(C)C)NC(=O)[C@H](CC(C)C)NC1=O (stereo partly drawn) [GalM73]

- preference for stimulating GalR2 (over GalR1), in words [1]: preference for stimulating GalR2
SMILES: CC(C)C[C@H](NC(=O)[C@H](CC(C)C)NC(=O)[C@H](Cc1ccc(O)cc1)NC(=O)CNC(=O)[C@H](C)NC(=O)[C@H](C)NC(=O)[C@H](CC(N)=O)NC(=O)[C@H](CC(C)C)NC(=O)[C@H](CC(N)=O)NC(=O)[C@H](Cc1c[nH]c2ccccc12)NC(=O)[C@@H]1CCC(=O)N1)C(=O)NCC(=O)N1CCC[C@H]1C(=O)N[C@@H](Cc1c[nH]cn1)C(=O)N[C@@H](C)C(=O)N[C@H]1C(=O)NCC(=O)N[C@@H](CC(N)=O)C(=O)N[C@H](C(=O)N[C@@H](CCCNC(=N)N)C(=O)O)CS[C@H]1C [GalM74b]

- activity, in words [1]: low activity
SMILES: CC(C)C[C@@H]1NC(=O)[C@H](CC(C)C)NC(=O)[C@H](Cc2ccc(O)cc2)NC(=O)[C@H](NC(=O)[C@H](C)NC(=O)[C@H](C)NC(=O)[C@H](CC(N)=O)NC(=O)[C@H](CC(C)C)NC(=O)[C@H](CC(N)=O)NC(=O)[C@H](Cc2c[nH]c3ccccc23)NC(=O)[C@@H]2CCC(=O)N2)CSC[C@@H](C(=O)O)NC1=O [GalM82]

- preference for stimulating GalR2 (over GalR1), in words [1]: preference for stimulating GalR2
SMILES: CC(C)C[C@H](NC(=O)[C@H](CC(C)C)NC(=O)[C@H](Cc1ccc(O)cc1)NC(=O)CNC(=O)[C@H](C)NC(=O)[C@H](C)NC(=O)[C@H](CC(N)=O)NC(=O)[C@H](CC(C)C)NC(=O)[C@H](CC(N)=O)NC(=O)[C@H](Cc1c[nH]c2ccccc12)NC(=O)[C@@H]1CCC(=O)N1)C(=O)NCC(=O)N1CCC[C@H]1C(=O)N[C@H]1C(=O)N[C@@H](C)C(=O)N[C@@H](C(C)C)C(=O)N[C@H](C(=O)O)CS[C@H]1C [GalM87]

- preference for stimulating GalR2 (over GalR1), in words [1]: preference for stimulating GalR2
SMILES: CC(C)C[C@H](NC(=O)[C@H](CC(C)C)NC(=O)[C@H](Cc1ccc(O)cc1)NC(=O)CNC(=O)[C@H](C)NC(=O)[C@H](C)NC(=O)[C@H](CC(N)=O)NC(=O)[C@H](CC(C)C)NC(=O)[C@H](CC(N)=O)NC(=O)[C@H](Cc1c[nH]c2ccccc12)NC(=O)[C@@H]1CCC(=O)N1)C(=O)N[C@@H](C)C(=O)N[C@H]1C(=O)N[C@@H](Cc2c[nH]cn2)C(=O)N[C@@H](C)C(=O)N[C@H](C(=O)NCC(=O)O)CS[C@H]1C [GalM89b]

SMILES: CC(C)C[C@H](NC(=O)[C@H](CC(C)C)NC(=O)[C@H](Cc1ccc(O)cc1)NC(=O)CNC(=O)[C@H](C)NC(=O)[C@H](C)NC(=O)[C@H](CC(N)=O)NC(=O)[C@@H](NC(=O)[C@H](CC(N)=O)NC(=O)[C@H](Cc1c[nH]c2ccccc12)NC(=O)CN)C(C)C)C(=O)NCC(=O)N[C@@H](C)C(=O)N[C@H]1C(=O)N[C@@H](C)C(=O)N[C@@H](C(C)C)C(=O)N[C@H](C(=O)N[C@@H](CC(N)=O)C(=O)N[C@@H](Cc2c[nH]cn2)C(=O)N[C@@H](CCCNC(=N)N)C(=O)O)CS[C@H]1C [GalM92]
- efficacy via GalR2 compared with GalWtb, in words (GalR2): comparable efficacy via GalR2 like GalWtb

SMILES: CC(C)C[C@H](NC(=O)[C@H](CC(C)C)NC(=O)[C@H](Cc1ccc(O)cc1)NC(=O)CNC(=O)[C@H](C)NC(=O)[C@H](C)NC(=O)[C@H](CC(N)=O)NC(=O)[C@H](CC(N)=O)NC(=O)[C@H](CC(N)=O)NC(=O)[C@H](Cc1c[nH]c2ccccc12)NC(=O)CN)C(=O)NCC(=O)N[C@@H](C)C(=O)N[C@H]1C(=O)N[C@@H](C)C(=O)N[C@@H](C(C)C)C(=O)N[C@H](C(=O)N[C@@H](CC(N)=O)C(=O)N[C@@H](Cc2c[nH]cn2)C(=O)N[C@@H](CCCNC(=N)N)C(=O)O)CS[C@H]1C [GalM94]
- efficacy via GalR2 compared with GalWtb, in words (GalR2): comparable efficacy via GalR2 like GalWtb
